Laboratory results published in article PMC6609541, “Enterohepatic circulation of glucuronide metabolites of drugs in dog” (Pharmacology Research & Perspectives, 2019).
Like-named read-outs stand apart in the source and are kept apart here.

How the values were obtained:
[1] = system: human intestinal microsomes; design: method as in PMID 27862160; conditions: human intestinal microsomes ref 6; cited from earlier work
[2] = system: UGT (glucuronidation); experiment: Kidney microsomal glucuronidation assay (human); type: in vitro ADME; conditions: kidney microsomes, pH 7.5, human, with 2% BSA
Procedure: (§1) Intrinsic clearance of the compounds by glucuronidation was conducted in human and dog liver and kidney microsomes. Microsomes (0.5 mg/mL) with or without 2% bovine serum albumin (BSA), 100 mmol/L Tris‐HCl buffer, (pH 7.5), containing 5 mmol/L MgCl2 and 50 µg of alamethicin were mixed and placed on ice for 15 minutes. Canagliflozin or DPTQ (2 µmol/L final concentration) were added, and the mixture was pre‐incubated at 37°C for 3 minutes. A 0‐minute time point was obtained and the reaction initiated by the addition of UDPGA (5 mmol/L final concentration). Aliquots of the incubation (50 µL) were removed at various time points 5, 15, 30, 60 and 120 minutes, and added to the quench solution (1:1 acetonitrile:water). The zero minute time points were also quenched in the same manner. Substrate concentrations were then measured by LC/MS and the intrinsic clearance values (μL/min/mg protein) were calculated using following equation. CLint=-kdep×incubation volume/mg protein
(§2) In which the depletion rate constant (k dep) is the slope determined using linear regression from the log transformed % remaining on the y‐axis vs time on the x‐axis (min^− ^1). […] To determine the unbound intrinsic clearances the microsomal Clint values were divided by the respective microsomal fraction unbound values. The microsomal unbound fraction both with and without 2% BSA was determined as described previously.15

[3] = human, cited from earlier work; for EHC: enterohepatic circulation ref 11
[4] = system: human intestinal microsomes; experiment: Intestinal glucuronidation in human intestinal microsomes; type: in vitro ADME; conditions: data not shown
[5] = target: T1, P-gp (Homo sapiens, UniProt P08183); experiment: Bi‐directional transport across MDCKII cells expressing human P‐gp; type: in vitro ADME; conditions: human, MDCK-MDR1, with 2.5 μmol/L LSN335984, uninhibited ratio divided by inhibited ratio; NER >3.0 = P‐gp substrate; read-out: Net efflux ratio
T1 construct: host or cells: MDCKII
Procedure: MDCKII cells stably expressing human wild‐type P‐gp were obtained from the Netherlands Cancer Institute Amsterdam, The Netherlands). MDCK cells were maintained and the assay was conducted essentially as described previously.12, 13 Transport was measured in both directions across uninhibited and inhibited cell monolayers using a substrate concentration of 5 μmol/L diluted from a 10 mmol/L DMSO stock solution final DMSO concentration of 0.05%) and a single 60‐min time interval.

[6] = system: UGT; experiment: Liver microsomal glucuronidation assay (dog); type: in vitro ADME; conditions: dog liver microsomes, pH 7.5, dog, with 2% BSA
Procedure: as §1, §2

[7] = system: UGT (glucuronidation); experiment: Liver microsomal glucuronidation assay (dog); type: in vitro ADME; conditions: liver microsomes, pH 7.5, dog, without BSA
Procedure: as §1, §2

[8] = Clint divided by microsomal unbound fraction, read-out: Clint,u, Liver microsomes

T1 sequence (P08183 whole entry): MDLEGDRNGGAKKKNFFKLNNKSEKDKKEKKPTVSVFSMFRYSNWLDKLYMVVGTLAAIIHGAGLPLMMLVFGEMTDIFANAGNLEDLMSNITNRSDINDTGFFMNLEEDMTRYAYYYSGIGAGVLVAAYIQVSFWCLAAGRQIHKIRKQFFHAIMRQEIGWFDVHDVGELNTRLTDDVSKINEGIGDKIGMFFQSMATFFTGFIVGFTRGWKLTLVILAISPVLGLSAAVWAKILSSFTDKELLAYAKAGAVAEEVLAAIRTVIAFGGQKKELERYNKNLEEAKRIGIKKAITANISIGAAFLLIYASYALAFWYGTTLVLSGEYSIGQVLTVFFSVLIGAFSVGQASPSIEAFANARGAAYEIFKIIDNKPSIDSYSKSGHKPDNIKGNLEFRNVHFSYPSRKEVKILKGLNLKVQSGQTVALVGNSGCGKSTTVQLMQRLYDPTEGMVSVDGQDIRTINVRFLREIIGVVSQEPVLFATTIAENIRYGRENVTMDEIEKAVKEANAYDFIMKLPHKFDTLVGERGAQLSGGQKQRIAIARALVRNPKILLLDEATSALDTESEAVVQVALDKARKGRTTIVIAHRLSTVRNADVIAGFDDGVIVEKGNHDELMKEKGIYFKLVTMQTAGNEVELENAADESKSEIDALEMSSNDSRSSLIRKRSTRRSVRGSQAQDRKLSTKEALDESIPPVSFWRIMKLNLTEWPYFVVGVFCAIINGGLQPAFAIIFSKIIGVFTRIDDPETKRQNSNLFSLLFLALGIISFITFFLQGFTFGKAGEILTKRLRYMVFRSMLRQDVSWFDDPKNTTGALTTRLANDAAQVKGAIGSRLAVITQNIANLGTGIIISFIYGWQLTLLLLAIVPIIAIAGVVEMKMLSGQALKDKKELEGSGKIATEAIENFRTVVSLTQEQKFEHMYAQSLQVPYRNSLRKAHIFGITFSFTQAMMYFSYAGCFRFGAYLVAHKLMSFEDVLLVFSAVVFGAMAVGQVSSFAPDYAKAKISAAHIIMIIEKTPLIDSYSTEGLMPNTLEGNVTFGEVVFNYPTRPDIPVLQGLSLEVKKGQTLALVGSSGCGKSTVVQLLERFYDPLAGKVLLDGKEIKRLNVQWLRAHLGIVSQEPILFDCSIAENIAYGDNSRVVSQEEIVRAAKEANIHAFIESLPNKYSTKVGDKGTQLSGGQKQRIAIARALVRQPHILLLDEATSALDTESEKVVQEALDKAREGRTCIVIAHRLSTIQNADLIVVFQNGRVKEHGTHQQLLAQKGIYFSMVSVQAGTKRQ

Cc1ccc([C@@H]2O[C@H](CO)[C@@H](O)[C@H](O)[C@H]2O)cc1Cc1ccc(-c2ccc(F)cc2)s1 [Canagliflozin]
intestinal glucuronidation [1]: negligible
microsomal CLint at 2 µmol/L ([2]; Clint divided by microsomal unbound fraction, read-out: Clint,u, Kidney microsomes): 222 µL/min/mg
microsomal CLint at 2 µmol/L ([2]; ND = Clint < 1.8, read-out: Clint, Kidney microsomes): 4 µL/min/mg
EHC [3]: No
EHC ([3]; listed as canagliflozin): negligible
Urinary excretion % of glucuronide ([3]; From human 14C study ref 5): Moderate ^d (moderate 30%‐70%)

C[C@H]1c2cccc(CC(C)(C)O)c2C[C@H](CO)N1C(=O)Cc1c(Cl)cccc1Cl [DPTQ, 2‐(2,6‐dichlorophenyl)‐1‐((1S,3R)‐5‐(2‐hydroxy‐2‐methylpropyl)‐3‐(hydroxymethyl)‐1‐methyl‐3,4‐dihydroisoquinolin‐2(1H)‐yl)ethan‐1‐one]
intestinal glucuronidation [4]: negligible
efflux ratio at 60 min, 5 μmol/L [5]: 1.3
microsomal CLint at 2 µmol/L [6, 8]: 667 µL/min/mg
microsomal CLint at 2 µmol/L ([6]; ND = Clint < 1.8, read-out: Clint, Liver microsomes): 79.4 µL/min/mg
microsomal CLint at 2 µmol/L ([7]; 2 µmol/L, 0.5 mg/mL, UDPGA, ND = Clint < 1.8, read-out: Clint, Liver microsomes): 99 µL/min/mg
microsomal CLint at 2 µmol/L [7, 8]: 123 µL/min/mg
